Measurements reported in publication PMC7647112, “The SiaABC threonine phosphorylation pathway controls biofilm formation in response to carbon availability in Pseudomonas aeruginosa” (PLoS ONE, 2020).

Assays:
SiaA-PP2C [1] = target: T1, SiaA-PP2C (Pseudomonas aeruginosa, UniProt Q9I6W0); experiment: pNPP phosphatase assay, absorbance […] nm; type: biochemical; settings: 20 mM MgCl2, 20 mM Tris-HCl pH 7.5, 150 mM NaCl, 37°C; 0.5-5 mM pNPP
T1 construct: gene PA0172; C-terminal PP2C phosphatase domain, residues 386-663, His-tagged (pNIC vectors), E. coli BL21(DE3) Rosetta; ~33 kDa monomer, homodimer (66 kDa by SEC)

[2] = target: C-terminal part of SiaA including the PP2C-like phosphatase domain (SiaA-PP2C, amino acids 386-663) (Pseudomonas aeruginosa); experiment: SEC; size-exclusion chromatography of SiaA-PP2C alone; elution compared with markers
SiaA-PP2C [3] = target: T1, SiaA-PP2C; experiment: pNPP phosphatase assay, absorbance […] nm; type: biochemical; settings: read-out: % activity remaining at 0.1 mM fumonisin B1
[4] = target: SiaC (Pseudomonas aeruginosa); experiment: SEC; SiaB and SiaC mixed in equal molar ratio, incubated at room temperature for 1 h, without ATP and MgCl2; Hiload 16/600 Superdex 200; peaks analysed by SDS-PAGE

O=[N+]([O-])c1ccc(OP(=O)(O)O)cc1 [para-nitrophenyl phosphate]
pNPP phosphatase assay, absorbance 405 nm (SiaA-PP2C [1]): phosphatase activity of SiaA-PP2C was assessed using para-nitrophenyl phosphate (pNPP)

C-terminal part of SiaA including the PP2C-like phosphatase domain (SiaA-PP2C, amino acids 386-663) (domain or fragment)
stoichiometry N [2]: 2

CCCC[C@@H](C)[C@@H](OC(=O)C[C@@H](CC(=O)O)C(=O)O)[C@H](C[C@@H](C)C[C@H](O)CCCC[C@@H](O)C[C@H](O)[C@H](C)N)OC(=O)C[C@@H](CC(=O)O)C(=O)O [fumonisin B1]
remaining activity at 100 µM (SiaA-PP2C [3]): 35.5%

SiaB (enzyme)
stoichiometry N (SiaB:SiaC (2:2 complex)) [4]: 1
